Reference: PMC9081821 (Steroids, 2022)

Legend:
[1] = molecular target: T1, human GR (glucocorticoid receptor) (Homo sapiens, UniProt P04150); format: cell-based; conditions: for IC50 (M) ± SEM: 20 nM [3H]-DEX, 3 h
T1 sequence (P04150 1-777): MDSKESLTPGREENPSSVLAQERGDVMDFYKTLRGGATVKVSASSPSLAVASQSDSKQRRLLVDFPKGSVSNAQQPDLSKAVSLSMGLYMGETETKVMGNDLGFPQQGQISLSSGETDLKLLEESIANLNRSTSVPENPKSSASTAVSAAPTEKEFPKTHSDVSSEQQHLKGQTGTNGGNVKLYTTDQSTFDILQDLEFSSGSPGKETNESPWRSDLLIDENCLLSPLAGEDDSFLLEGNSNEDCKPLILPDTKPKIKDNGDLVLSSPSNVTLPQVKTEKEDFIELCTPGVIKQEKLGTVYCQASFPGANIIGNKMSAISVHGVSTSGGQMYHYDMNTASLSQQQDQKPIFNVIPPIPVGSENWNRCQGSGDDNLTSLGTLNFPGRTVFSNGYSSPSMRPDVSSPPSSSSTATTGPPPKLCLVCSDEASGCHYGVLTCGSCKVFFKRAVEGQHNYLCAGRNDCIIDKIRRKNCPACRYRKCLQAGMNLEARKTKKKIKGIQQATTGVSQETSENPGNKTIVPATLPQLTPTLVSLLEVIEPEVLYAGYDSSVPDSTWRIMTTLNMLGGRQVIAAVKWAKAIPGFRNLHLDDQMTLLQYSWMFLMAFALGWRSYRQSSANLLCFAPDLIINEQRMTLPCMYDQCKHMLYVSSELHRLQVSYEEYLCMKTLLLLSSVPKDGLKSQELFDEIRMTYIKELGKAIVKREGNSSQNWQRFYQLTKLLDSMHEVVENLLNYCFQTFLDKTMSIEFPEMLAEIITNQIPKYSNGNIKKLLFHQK

[2] = molecular target: T1, human GR (glucocorticoid receptor); experiment: GRE-luciferase reporter transactivation in transfected COS-1 cells; format: cell-based

IC50 (M) ± SEM [1] | EC50 [2] [nM] | IC50 [1] [nM] | SMILES
1.15 ± 5.2 × 10^-8 M | 31.9 |  | C#C[C@]1(O)CC[C@H]2[C@@H]3CCC4=CC(=O)CC[C@@H]4[C@H]3C(=C)C[C@@]21CC [etonogestrel]
1.35 ± 9.1 × 10^-7 M |  |  | C#C[C@]1(O)CC[C@H]2[C@@H]3CCC4=CC(=O)CC[C@@H]4[C@H]3CC[C@@]21CC [levonorgestrel]
 | 41.7 | 5.58 | CC(=O)O[C@]1(C(C)=O)CC[C@H]2[C@@H]3C[C@H](C)C4=CC(=O)CC[C@]4(C)[C@H]3CC[C@@]21C [medroxyprogesterone acetate]
 | 18.5 | 57.3 | C=C1C[C@H]2[C@@H]3CCC4=CC(=O)CC[C@@H]4[C@H]3CC[C@]2(C)[C@@]1(OC(C)=O)C(C)=O [nestorone]
